Data taken from patent US8232408B2, “Crystalline 1-(3-fluorophenyl)-5-methyl-2-(1H)pyridone, the preparation methods, compositions and applications thereof” (Sunshine Lake Pharma Co., Ltd., priority 2008, dated 2012).
Converted amounts (≈) assume the structure as drawn. Like-named read-outs stand apart in the source and are kept apart here.

What was measured:
[1] = Solubility per "Testing Method For Determining The Solubility", Chinese Pharmacopoeia 2005; type: physicochemical; conditions: water, 25±1° C.
Excerpt: (Testing method is according to the “Testing Method For Determining The Solubility” in The Chinese Pharmacopoeia 2005, the example section of the second part, the last line on the first page to the first line on the second.)
2. […] It can ensure that the drug can be steadily released after taking orally. The drug can mix with one's internal environment easily after release, which renders the steady absorption of the drug, and the achievement of a relatively stable bioavailability.

[2] = tested on: renal interstitial cell; conditions: cited from earlier work
[3] = Solubility measurement: excess sample shaken in purified water for 48 hours, filtered supernatant measured; type: physicochemical; conditions: thermodynamic from solid, shaken 48 hours
Protocol: Solubility measurement: excess crystalline FFD solid dispersion was put into a cone-shaped bottle with a stopper. After 100 ml purified water was added, the solution was shaken at a constant of 25° C. and 37° C. separately for 48 hours. The filtered supernatants were diluted and their concentrations were measured thrice for each sample.

Compound | solubility ([1]; 25 °C, thermodynamic from solid, read-out: solubility) [µg/mL] | effect on anti-fibrosis [2] | solubility [1] | solubility at 48 h ([3]; 25° C.) [µg/mL] | solubility at 48 h ([3]; 37° C.) [µg/mL]
Cc1ccc(=O)n(-c2cccc(F)c2)c1 [FFD, 1-(3-fluorophenyl)-5-methyl-2-(1H)-pyridone] | 1410 to 1490 (≈ 6.94 to 7.33 mM) | good effect on anti-fibrosis |  |  | 
Cc1ccc(=O)n(-c2cccc(F)c2)c1 [crystalline FFD, 1-(3-fluorophenyl)-5-methyl-2-(1H)-pyridone] |  |  | 2.44˜2.55 mg/ml | 2440 to 2550 (≈ 12 to 12.5 mM) | 3140 to 3160
